Measured values: ChEMBL document CHEMBL1201862, “PubChem BioAssay data set” (2004)
Active and inactive are the calls of the source.

Key:
[1] = target: T1, Protein Tat (Human immunodeficiency virus type 1 group M subtype B (isolate HXB2)(HIV-1), UniProt P04608); format: functional;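 further: tat binding to TAR RNA read out by fluorescence polarization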
T1 sequence (P04608 whole entry): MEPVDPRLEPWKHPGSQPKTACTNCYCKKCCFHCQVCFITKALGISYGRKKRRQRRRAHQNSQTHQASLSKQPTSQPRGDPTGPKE

[2] = THP-1 cell cytotoxicity, dose response, cytotoxicity control for Vif-APOBEC3G degradation inhibitor project, THP-1 cells (AID 1117359); format: functional; settings: Human immunodeficiency virus 1, THP-1
[3] = target: T2, Cysteine protease ATG4B (Homo sapiens, UniProt Q9Y4P1); format: functional;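 further: Fluorescence-based dose-response confirmation assay measuring inhibition of ATG4B activity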
T2 sequence (Q9Y4P1 whole entry): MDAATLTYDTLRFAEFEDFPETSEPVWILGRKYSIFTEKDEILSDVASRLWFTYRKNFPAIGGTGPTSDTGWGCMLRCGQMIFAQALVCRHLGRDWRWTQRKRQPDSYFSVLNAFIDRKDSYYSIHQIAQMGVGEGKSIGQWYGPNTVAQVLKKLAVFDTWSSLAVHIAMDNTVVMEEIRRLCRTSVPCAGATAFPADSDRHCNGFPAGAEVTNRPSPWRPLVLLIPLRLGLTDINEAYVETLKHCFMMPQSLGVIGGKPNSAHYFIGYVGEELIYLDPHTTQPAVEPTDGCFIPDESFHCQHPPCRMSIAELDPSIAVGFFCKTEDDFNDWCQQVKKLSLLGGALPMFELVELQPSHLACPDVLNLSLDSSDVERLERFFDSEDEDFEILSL

[4] = system: Escherichia coli; experiment: microbe, parasite or virus in culture
[5] = system: Escherichia coli; experiment: microbe, parasite or virus in culture; remark: listed apart in the source
[6] = target: Phospholipase A2 (Homo sapiens, UniProt P04054); format: functional;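 further: confirmatory dose-response counterscreen on phospholipase A2, testing hits that came from an ultra-high-throughput screen for ATG4B inhibitors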
[7] = target: T3, Zinc finger protein mex-5 (Caenorhabditis elegans, UniProt Q9XUB2); experiment: MEX-5/TCR-2 RNA interaction inhibitors, dose response, biochemical, C. elegans, fluorescence polarization (AID 1960)
T3 sequence (Q9XUB2 whole entry): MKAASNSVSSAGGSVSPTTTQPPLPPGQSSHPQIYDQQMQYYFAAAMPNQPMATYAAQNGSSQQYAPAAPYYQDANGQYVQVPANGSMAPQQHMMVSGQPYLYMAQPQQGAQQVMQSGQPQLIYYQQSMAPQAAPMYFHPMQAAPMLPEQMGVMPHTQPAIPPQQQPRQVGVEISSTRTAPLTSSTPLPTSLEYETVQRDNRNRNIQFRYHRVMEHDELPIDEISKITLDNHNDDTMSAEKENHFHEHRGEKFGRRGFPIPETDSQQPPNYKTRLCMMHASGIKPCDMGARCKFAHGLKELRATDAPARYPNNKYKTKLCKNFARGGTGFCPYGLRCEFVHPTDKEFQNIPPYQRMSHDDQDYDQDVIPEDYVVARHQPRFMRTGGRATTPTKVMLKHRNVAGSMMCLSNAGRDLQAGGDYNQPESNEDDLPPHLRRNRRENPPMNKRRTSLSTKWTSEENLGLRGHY

[8] = target: Phospholipase D1 (Homo sapiens, UniProt Q13393); experiment: PLD1 purified enzyme concentration response. [Related pubchem assays (depositor defined):AID588854]; format: functional
[9] = target: Phospholipase D2 (Homo sapiens, UniProt O14939); experiment: PLD2 purified enzyme concentration response. [Related pubchem assays (depositor defined):AID588854]; format: functional
[10] = cytotoxicity in HEK-293T NF-kB-Luc cells, dose response, cytotoxicity control for B/T-cell NF-kB inhibitor project, cell-based, uHTS hits (AID 489019); format: functional;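 further: IC50 reflects cytotoxicity as loss of cell viability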
[11] = target: T4, Heat shock factor protein 1 (Mus musculus, UniProt P38532); experiment: inhibition of MG132-induced HSE-luciferase signal, confirmation, cell-based, NIH3T3, luminescence, dose retest (AID 2382); format: functional;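 further: NIH3T3 fibroblasts with HSF1-driven luciferase reporter stressed by proteasome inhibitor MG132; luminescence from HSF1-driven luciferase expression after 8 hours of MG132 stress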
T4 sequence (P38532 whole entry): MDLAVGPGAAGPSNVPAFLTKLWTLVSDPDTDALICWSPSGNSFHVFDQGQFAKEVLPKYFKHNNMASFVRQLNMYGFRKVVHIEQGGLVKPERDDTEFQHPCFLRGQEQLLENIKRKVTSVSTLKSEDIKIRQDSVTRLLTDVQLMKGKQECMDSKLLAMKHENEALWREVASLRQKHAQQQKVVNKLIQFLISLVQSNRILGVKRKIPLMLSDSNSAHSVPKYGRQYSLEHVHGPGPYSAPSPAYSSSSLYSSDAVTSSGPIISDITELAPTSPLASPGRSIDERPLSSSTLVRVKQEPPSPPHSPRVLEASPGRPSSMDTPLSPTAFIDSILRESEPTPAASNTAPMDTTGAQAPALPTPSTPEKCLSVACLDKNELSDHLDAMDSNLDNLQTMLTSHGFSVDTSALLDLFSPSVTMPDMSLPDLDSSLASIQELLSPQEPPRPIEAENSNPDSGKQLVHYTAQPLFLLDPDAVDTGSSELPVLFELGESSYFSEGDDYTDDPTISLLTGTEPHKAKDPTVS

[12] = inhibitors of firefly luciferase expression or activity, dose response, H4 neuroglioma cells, luminescence (AID 1990); format: functional, cell-based
[13] = Luminescence Cell-Based Dose Response HTS to Identify Inhibitors of 5'UTR Stem-Loop Driven Prion Protein mRNA Translation in H4 Neuroglioblastoma Cells. [Related pubchem assays: 1827 (Project Summary), 1813 (Primary HTS)]; format: functional
[14] = system: P388; experiment: cells; format: functional; settings: Mus musculus
[15] = inhibitors of SNCA 5'UTR-driven reporter translation, confirmation, H4 neuroglioma cells, luminescence (AID 1988); format: functional, cell-based
[16] = system: P388/ADR; experiment: cells; format: functional; settings: Mus musculus
[17] = system: SN12K1; experiment: cells; format: functional; settings: Homo sapiens
[18] = system: Jurkat; experiment: antigen receptor-induced NF-kB inhibitors, dose response, Jurkat, luciferase reporter, luminescence, B- and T-cell (AID 489004); format: functional, cell-based; settings: Homo sapiens;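 further: NF-kB luciferase reporter Jurkat cells stimulated with PMA plus ionomycin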
[19] = system: Jurkat; experiment: SAR Analysis of small molecule inhibitors of T-cell specific antigen receptor-induced NF-kB activation in a Jurkat cell line using a luminescence assay - Set 2. [Related pubchem assays (depositor defined):AID435003, AID435012, AID465]; format: functional, cell-based; settings: Homo sapiens
[20] = system: HEK293; experiment: cytotoxicity in HEK293T NF-kB-Luc cells, SAR follow-up, cytotoxicity control for NF-kB activator project, cell-based, resazurin fluorescence (AID 493251); format: functional; settings: Homo sapiens
[21] = system: HEK293; experiment: SAR Analysis of small molecule inhibitors of T-cell specific antigen receptor-induced NF-kB activation in a HEK-293T cell line using a luminescence assay - Set 2. [Related pubchem assays (depositor defined):AID435003, AID435012, AID489026]; format: functional, cell-based; settings: Homo sapiens

Chain of Phospholipase D1 (Q13393 whole entry): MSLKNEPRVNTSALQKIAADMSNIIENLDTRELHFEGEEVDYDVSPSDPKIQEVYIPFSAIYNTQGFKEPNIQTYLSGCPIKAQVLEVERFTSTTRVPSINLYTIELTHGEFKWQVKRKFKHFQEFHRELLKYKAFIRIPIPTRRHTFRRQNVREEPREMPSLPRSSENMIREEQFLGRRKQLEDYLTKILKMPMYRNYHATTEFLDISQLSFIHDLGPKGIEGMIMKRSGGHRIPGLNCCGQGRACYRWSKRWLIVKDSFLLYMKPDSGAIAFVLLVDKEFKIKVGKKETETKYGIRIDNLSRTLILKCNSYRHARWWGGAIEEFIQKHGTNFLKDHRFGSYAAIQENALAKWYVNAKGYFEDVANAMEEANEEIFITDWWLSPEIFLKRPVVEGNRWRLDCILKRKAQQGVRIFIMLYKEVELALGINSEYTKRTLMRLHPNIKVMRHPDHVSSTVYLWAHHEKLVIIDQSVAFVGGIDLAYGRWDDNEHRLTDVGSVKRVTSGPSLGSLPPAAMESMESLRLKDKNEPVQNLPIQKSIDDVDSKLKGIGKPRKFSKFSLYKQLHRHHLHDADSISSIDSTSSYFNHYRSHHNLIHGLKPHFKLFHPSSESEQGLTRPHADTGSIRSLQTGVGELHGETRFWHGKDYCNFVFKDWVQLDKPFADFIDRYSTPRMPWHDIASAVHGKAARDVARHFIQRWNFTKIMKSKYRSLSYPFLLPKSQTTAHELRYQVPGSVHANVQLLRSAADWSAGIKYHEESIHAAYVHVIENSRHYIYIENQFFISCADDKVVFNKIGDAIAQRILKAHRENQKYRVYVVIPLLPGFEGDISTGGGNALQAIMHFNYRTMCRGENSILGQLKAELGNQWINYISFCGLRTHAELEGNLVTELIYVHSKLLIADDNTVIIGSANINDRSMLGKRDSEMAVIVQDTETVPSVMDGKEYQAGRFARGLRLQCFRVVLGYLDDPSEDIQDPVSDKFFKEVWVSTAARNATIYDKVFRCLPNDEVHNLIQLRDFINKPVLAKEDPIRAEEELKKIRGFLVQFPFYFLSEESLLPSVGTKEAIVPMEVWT
Chain of Phospholipase A2 (P04054 whole entry): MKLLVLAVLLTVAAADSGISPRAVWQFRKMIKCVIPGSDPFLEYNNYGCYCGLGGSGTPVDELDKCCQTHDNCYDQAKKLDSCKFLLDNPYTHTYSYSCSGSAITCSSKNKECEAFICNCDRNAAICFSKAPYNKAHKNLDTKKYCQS
Chain of Phospholipase D2 (O14939 whole entry): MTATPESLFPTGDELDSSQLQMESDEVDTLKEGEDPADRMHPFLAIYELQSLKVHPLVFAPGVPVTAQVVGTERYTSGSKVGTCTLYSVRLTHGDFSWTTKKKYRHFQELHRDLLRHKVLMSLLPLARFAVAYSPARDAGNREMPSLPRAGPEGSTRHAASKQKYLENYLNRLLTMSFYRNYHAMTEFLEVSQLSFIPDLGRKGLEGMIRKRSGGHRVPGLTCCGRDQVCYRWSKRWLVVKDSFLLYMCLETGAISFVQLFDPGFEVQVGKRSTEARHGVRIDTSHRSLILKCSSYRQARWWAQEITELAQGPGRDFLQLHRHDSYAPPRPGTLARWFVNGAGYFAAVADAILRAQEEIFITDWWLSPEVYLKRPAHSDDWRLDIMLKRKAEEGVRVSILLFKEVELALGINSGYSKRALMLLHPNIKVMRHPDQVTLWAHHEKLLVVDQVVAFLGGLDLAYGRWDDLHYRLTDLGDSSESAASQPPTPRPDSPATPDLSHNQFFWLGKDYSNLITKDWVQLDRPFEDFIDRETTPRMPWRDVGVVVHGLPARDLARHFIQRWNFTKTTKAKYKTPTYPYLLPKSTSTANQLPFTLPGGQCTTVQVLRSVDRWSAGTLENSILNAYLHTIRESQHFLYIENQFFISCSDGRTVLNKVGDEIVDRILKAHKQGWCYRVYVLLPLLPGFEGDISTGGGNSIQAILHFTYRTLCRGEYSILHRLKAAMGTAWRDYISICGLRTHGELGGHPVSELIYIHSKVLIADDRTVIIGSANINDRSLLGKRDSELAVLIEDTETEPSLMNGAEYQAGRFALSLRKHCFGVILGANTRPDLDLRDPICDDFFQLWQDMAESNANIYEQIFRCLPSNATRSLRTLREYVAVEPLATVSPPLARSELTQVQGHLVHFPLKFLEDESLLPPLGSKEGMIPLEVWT

Compound: C[C@H]1c2cccc(O)c2C(=O)C2=C(O)[C@]3(O)C(=O)C(C(N)=O)=C(O)[C@@H](N(C)C)[C@@H]3[C@@H](O)[C@@H]21
- IC50 [1]: > 100 µM (active)
- CC50 [2]: 36 µM (active)
- IC50 [3]: 10.4 µM (active)
- AC50 [4]: 20.8 µM (active)
- AC50 [5]: 0.783 µM (active)
- IC50 [6]: 42.9 µM (inactive)
- EC50 [7]: 37.9 µM (active)

Compound: O=C(NCCN1CCC2(CC1)C(=O)NCN2c1ccc(Br)cc1)c1cnc2ccccc2c1
- IC50 [8]: 3.04 µM (active)
- IC50 [9]: 0.13 µM (active)

Compound: Nc1nc(Cl)nc2c1ncn2C1CC(O)C(CO)O1 (stereo unspecified)
- IC50 [10]: > 80 µM (inactive)
- EC50 [11]: 79.9 µM (active)
- EC50 [12]: 0.544 µM (active)
- EC50 [13]: 3.61 µM (active)
- GI50 [14]: 0.0428 µM (active)
- EC50 [15]: 0.567 µM (active)
- GI50 [16]: 0.0535 µM (active)
- GI50 [17]: 0.695 µM (active)
- IC50 [18]: 2.36 µM (active)

Compound: Cc1ccc(C(NC(=O)C(C)C)c2ccc3cccnc3c2O)cc1 (stereo unspecified)
- IC50 [19]: 3.26 µM (active)
- IC50 [20]: 8.28 µM (active)
- IC50 [21]: 6.33 µM (active)
